Laboratory results published in paper PMC8764033, “Single-molecule analysis of specificity and multivalency in binding of short linear substrate motifs to the APC/C” (Nature Communications, 2022).
Several values for one entry are separate records, joined by “and”; a condition that tells them apart may be missing. Identical values can stand only once. Entries after “also recorded” stand apart in the source; their conditions may differ. Where a SMILES comes first, the peptide text is derived from it.

Key:
Format in all cases: binding
Cdh1^WD40 = target: T1, Cdh1^WD40 (Saccharomyces cerevisiae, UniProt P53197); assay: SMOR assay (single-molecule off-rate, TIRF), yeast Cdh1^WD40
T1 construct: the WD40 domains of yeast Cdh1 (aa 241–550; pNH144); made in house; host or cells: Sf9 insect cells (baculovirus)
T1 sequence (P53197 241-550): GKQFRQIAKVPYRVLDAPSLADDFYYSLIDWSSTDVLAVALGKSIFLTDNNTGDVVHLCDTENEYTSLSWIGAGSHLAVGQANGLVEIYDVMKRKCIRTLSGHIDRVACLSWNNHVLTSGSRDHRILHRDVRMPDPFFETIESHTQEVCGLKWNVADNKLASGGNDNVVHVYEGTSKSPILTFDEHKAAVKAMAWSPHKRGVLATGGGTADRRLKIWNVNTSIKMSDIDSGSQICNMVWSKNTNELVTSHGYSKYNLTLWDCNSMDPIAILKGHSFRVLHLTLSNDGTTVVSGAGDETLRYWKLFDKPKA
Method: (§1) Activators were cloned into the pFastBac HT A vector, with an N-terminal 2xStrep-Tag II. For some experiments, we constructed vectors for expression of the WD40 domains of yeast Cdh1 (aa 241–550; pNH144), human Cdh1 (aa 165–484; pNH164), or human Cdc20 (aa 162–484; pNH188). For SMOR, a C-terminal GFP tag was added. Bacmid plasmids are listed in Supplementary Table 3. Plasmids were transformed into DH10Bac cells, and purified Bacmid was used to transfect Sf9 cells to generate P1 baculovirus, which was used to generate P2 virus. SF9 cells were infected with the P2 virus for 48 h. Flash-frozen pellets were lysed by sonication or high-pressure homogenization in lysis buffer B (50 mM Tris-HCl pH 8, 150 mM KCl, 0.5 mM EDTA, 1 mM DTT, 10% Glycerol, EDTA-free protease inhibitor tablet, 1 µg ml^−1 pepstatin A). After the lysate was applied to the StrepTrap column, the column was washed with wash buffer B (lysis buffer B lacking protease inhibitors) and eluted in the same buffer containing 2.5 mM desthiobiotin.
(§2) For all SMOR experiments, 24 × 50 mm high precision glass coverslips (Bioscience Tools) and drilled microscope slides were passivated with a combination of PEG and PEG-biotin (coverslips) or PEG only (slides) following a previously published protocol for SiMPull[31]. Reaction chambers (~20 µl) were created using double-sided tape and epoxy. Protein was immobilized on the surface with 0.2 mg ml^−1 NeutrAvidin in buffer C (20 mM HEPES pH 7.5, 150 mM KCl, 10% glycerol, 0.05% Tween-20, 1 mM DTT). Excess NeutrAvidin was washed away and incubated with either biotin-conjugated mouse monoclonal anti-Strep-Tag II antibody (LSBio, Cat. No. LS-C203632-100) or biotin-conjugated rabbit polyclonal anti-GFP antibody (Rockland, Cat. No. 600-406-215) diluted in buffer C + BSA (0.1 mg ml^−1; Molecular Biology Grade Bovine Serum Albumin). Activator WD40 and activated APC/C (typically 50 µl containing about 65 ng APC/C, of which only a small fraction is immobilized on the glass) were immobilized using anti-Strep-Tag II, while APC/C alone was immobilized with anti-GFP. SMOR results were similar when performed in the buffer (wash buffer B) used in polarization anisotropy.
(§3) To capture dynamic protein–protein interactions, dye-labeled substrate diluted in buffer C + BSA was added to the chamber containing immobilized proteins. Interactions were imaged by TIRF microscopy as described below. For optimal signal-to-noise ratio, peptide concentration was no greater than 1 nM. Protein substrates included Hsl1 aa 667–872 and a C-terminal HaloTag followed by a TAP tag, and were produced by translation in rabbit reticulocyte lysates using TnT Quick Coupled Transcription/Translation System (Promega) (see Supplementary Table 5 for plasmids). Protein was purified with magnetic IgG beads and labeled on the bead with JF549 or JF646 dye so that unbound dye could be washed away. Purified dye-labeled protein was then cleaved from the beads using TEV protease. Before adding substrate to the reaction chamber, oxygen scavenging reagents were added (10 nM protocatechuate-3,4-dioxygenase, 2.5 mM protocatechuic acid, and 1 mM Trolox)[41]. A detailed description of the SMOR analysis pipeline is found in Supplementary Note 1.
(§4) Microscopy was performed with a Nikon Eclipse TE2000-E with Perfect Focus with a 100 × 1.49na oil, Apo TIRF DIC N2, 0.13-0.2, WD0.12 objective. Movies were recorded using the Andor iXon DU-897E-CSO. For visualizing GFP-tagged protein, a 491 nm laser was used with an ET525/50 (Chroma) filter for emission. For visualizing JF549-labeled substrate, a 561 nm laser was used with an ET595/50 (Chroma) filter for emission. For visualizing all Cy5-labeled peptides and JF646-labeled substrates, a 640 nm laser was used with an ET685/70 filter (Chroma) for emission. […]

hCdh1^WD40 = target: T2, hCdh1^WD40 (Homo sapiens, UniProt Q9UM11); assay: SMOR assay, human Cdh1 WD40; conditions: for mean dwell time: representative of two independent experiments, ± SE, ligand ≤1 nM, buffer C + BSA
T2 construct: human Cdh1 (aa 165–484; pNH164); made in house; host or cells: Sf9 insect cells (baculovirus)
T2 sequence (Q9UM11 165-484): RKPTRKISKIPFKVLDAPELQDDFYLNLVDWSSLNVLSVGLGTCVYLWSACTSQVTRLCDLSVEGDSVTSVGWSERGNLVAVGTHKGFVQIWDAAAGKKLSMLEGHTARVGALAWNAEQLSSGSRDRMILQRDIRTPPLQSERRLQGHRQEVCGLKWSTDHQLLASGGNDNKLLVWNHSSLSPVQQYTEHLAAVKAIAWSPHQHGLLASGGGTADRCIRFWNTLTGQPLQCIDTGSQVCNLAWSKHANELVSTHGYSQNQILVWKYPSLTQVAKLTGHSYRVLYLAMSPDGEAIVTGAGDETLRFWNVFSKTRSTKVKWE
Method: as §1, §2, §3, §4

hCdc20^WD40 = target: T3, hCdc20^WD40 (Homo sapiens, UniProt Q12834); assay: SMOR assay, human Cdc20 WD40; conditions: for Dwell Time: Clb5: Not 3x shutter speed
T3 construct: human Cdc20 (aa 162–484; pNH188); made in house; host or cells: Sf9 insect cells (baculovirus)
T3 sequence (Q12834 162-484): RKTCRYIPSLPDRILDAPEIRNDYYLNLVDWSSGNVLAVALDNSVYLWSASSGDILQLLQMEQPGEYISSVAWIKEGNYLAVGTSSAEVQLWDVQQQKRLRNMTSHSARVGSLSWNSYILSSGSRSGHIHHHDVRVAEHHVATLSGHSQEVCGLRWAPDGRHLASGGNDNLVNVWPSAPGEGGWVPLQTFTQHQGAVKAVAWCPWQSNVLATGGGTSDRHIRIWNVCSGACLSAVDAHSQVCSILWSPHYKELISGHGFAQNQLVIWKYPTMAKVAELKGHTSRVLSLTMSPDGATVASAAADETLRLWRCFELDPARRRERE
Method: as §1, §2, §3, §4

[1] = Supplementary Table 1, replicate 1
[2] = Supplementary Table 1, replicate 2
[3] = Supplementary Table 1, replicate 1 (movie listed first)
[4] = Supplementary Table 1, replicate 2 (movie listed second)

LPKATRKALGTVNRATEKSVK-K(Cy5) [AurKB D box, Cy5-labeled D box peptide of Aurora B kinase]
Dwell Time (in words) (Cdh1^WD40; [1]): single frame
Dwell Time (in words) (Cdh1^WD40; [2]): single frame
Dwell Time (hCdh1^WD40; [3]): 0.202 ± 0.003 s
Dwell Time (hCdh1^WD40; [4]): 0.135 ± 0.003 s
mean dwell time (hCdh1^WD40): 0.202 ± 0.003 s and 0.202 s
binding (in words) (hCdc20^WD40): single-frame interactions only
Dwell Time (in words) (hCdc20^WD40; [1]): single frame
Dwell Time (in words) (hCdc20^WD40; [2]): single frame

CC[C@H](C)[C@H](NC(=O)[C@H](CC(=O)O)NC(=O)[C@H](CO)NC(=O)[C@H](C)NC(=O)[C@H](C)NC(=O)[C@H](C)NC(=O)[C@H](C)NC(=O)[C@H](CCCCN)NC(=O)[C@@H]1CCCN1C(=O)[C@H](CCCCN)NC(=O)[C@H](CCC(N)=O)NC(=O)[C@@H](N)CCC(=O)O)C(=O)N[C@H](C(=O)N[C@@H](C)C(=O)N[C@@H](CO)C(=O)N[C@@H](Cc1ccccc1)C(=O)N[C@@H](CC(N)=O)C(=O)N[C@@H](CCCCN)C(=O)N[C@@H](CCSC)C(=O)N[C@@H](CC(N)=O)C(=O)N[C@@H](CCCCN)C(=O)O)[C@@H](C)O [Hsl1 D box mutant] (H-EQKPKAAAASDITASFNKMNK-OH; N-terminus and C-terminus assumed)
binding (in words) (Cdh1^WD40): negligible binding; also recorded: No binding
Dwell Time (in words) (Cdh1^WD40; [1]): no binding
Dwell Time (in words) (Cdh1^WD40; [2]): no binding
binding (in words) (hCdh1^WD40): No binding
Dwell Time (in words) (hCdh1^WD40; [1]): no binding
binding (in words) (hCdc20^WD40): No binding
Dwell Time (in words) (hCdc20^WD40; [1]): no binding

SKAAQFMLYEETAEERNI-K(Cy5) [Acm1 ABBA, Cy5-labeled Cdh1-specific ABBA motif from pseudosubstrate yeast protein Acm1]
Dwell Time (in words) (Cdh1^WD40; [1]): single frame
Dwell Time (in words) (Cdh1^WD40; [2]): single frame
binding (in words) (hCdh1^WD40): No binding
Dwell Time (in words) (hCdh1^WD40; [1]): no binding
Dwell Time (in words) (hCdh1^WD40; [2]): no binding
binding (in words) (hCdc20^WD40): No binding
Dwell Time (in words) (hCdc20^WD40; [1]): no binding
Dwell Time (in words) (hCdc20^WD40; [2]): no binding

CC(C)C[C@H](NC(=O)[C@H](C)NC(=O)[C@H](CCCNC(=N)N)NC(=O)[C@H](CCCNC(=N)N)NC(=O)[C@@H]1CCCN1C(=O)[C@H](CCCCN)NC(=O)[C@H](CO)NC(=O)[C@H](CC(=O)O)NC(=O)[C@@H](N)CCC(N)=O)C(=O)N[C@H](C(=O)N[C@@H](CC(=O)O)C(=O)N[C@H](C(=O)N1CCC[C@H]1C(=O)N[C@H](C(=O)N[C@@H](CC(N)=O)C(=O)N[C@@H](CC(N)=O)C(=O)N[C@@H](CC(N)=O)C(=O)N1CCC[C@H]1C(=O)N[C@@H](CC(C)C)C(=O)N[C@@H](CO)C(=O)N[C@@H](CCC(N)=O)C(=O)N[C@@H](CCCCN)C(=O)O)C(C)C)C(C)C)[C@@H](C)O [Clb5 D box] (H-QDSKPRRALTDVPVNNNPLSQK-OH; N-terminus and C-terminus assumed)
Dwell Time (in words) (Cdh1^WD40; [1]): single frame
Dwell Time (in words) (Cdh1^WD40; [2]): single frame
Dwell Time (in words) (hCdh1^WD40; [1]): single frame
Dwell Time (in words) (hCdh1^WD40; [2]): single frame
Dwell Time (hCdc20^WD40; [3]): 0.054 ± 0.001 s
Dwell Time (hCdc20^WD40; [4]): 0.058 ± 0.001 s
mean dwell time (hCdc20^WD40; less than three times the frame rate, therefore less reliable (footnote a)): 0.054 s^a

CC[C@H](C)[C@H](NC(=O)[C@H](Cc1ccccc1)NC(=O)[C@H](CO)NC(=O)[C@H](CCCCN)NC(=O)[C@H](CO)NC(=O)[C@H](CCCNC(=N)N)NC(=O)[C@H](CC(N)=O)NC(=O)[C@H](CC(N)=O)NC(=O)[C@H](CC(=O)O)NC(=O)[C@H](CCCCN)NC(=O)[C@H](C)NC(=O)[C@H](C)NC(=O)[C@H](CC(C)C)NC(=O)[C@@H]1CCCN1C(=O)[C@H](CC(C)C)NC(=O)[C@H](CCCNC(=N)N)NC(=O)CNC(=O)[C@H](CCC(N)=O)NC(=O)[C@H](CCC(N)=O)NC(=O)[C@H](CCC(N)=O)NC(=O)[C@H](C)N)C(=O)N[C@@H](CCCCN)C(=O)O [ySecurin D box] (H-AQQQGRLPLAAKDNNRSKSFIK-OH; N-terminus and C-terminus assumed)
Dwell Time (in words) (Cdh1^WD40; [1]): single frame
Dwell Time (in words) (Cdh1^WD40; [2]): single frame
Dwell Time (in words) (hCdh1^WD40; [1]): single frame
Dwell Time (in words) (hCdh1^WD40; [2]): single frame
Dwell Time (in words) (hCdc20^WD40; [1]): single frame
Dwell Time (in words) (hCdc20^WD40; [2]): single frame

LIYVDKENGEPGTR-K(Cy5) [hSecurin KEN, Cy5-labeled KEN box peptide of human securin/Pttg1]
binding (in words) (Cdh1^WD40): No binding
Dwell Time (in words) (Cdh1^WD40; [1]): no binding
Dwell Time (in words) (Cdh1^WD40; [2]): no binding
Dwell Time (hCdh1^WD40; [3]): 0.171 ± 0.004 s
Dwell Time (hCdh1^WD40; [4]): 0.174 ± 0.003 s
mean dwell time (hCdh1^WD40): 0.174 ± 0.003 s and 0.174 s
binding (in words) (hCdc20^WD40): did not bind human Cdc20^WD40; also recorded: No binding
Dwell Time (in words) (hCdc20^WD40; [1]): no binding
Dwell Time (in words) (hCdc20^WD40; [2]): no binding
